# Entries after “also recorded” stand apart in the source; their conditions may differ.
# How the values were obtained:
# [1] = Formulation stability of PPC injectable preparations: property, transparency, particle size, pH
# mouse paw = experiment: In vivo pain: moving distance and moving speed after paw injection; conditions: 100 ul into paw, 2 hours after administration, 5 minutes; listed as PPC 5.0%
# Method: Specifically, 100 μl of each test material was injected into the floor of the paws of the rats, and edema was observed. […] The movement before and after injection of the test material was compared through distance and time. The movement before and after injection was measured using Noldus Video Traking system and compared with moving distance (FIG. 13A) and moving speed (FIG. 13B).
# After the edema was confirmed to be the most at 2 hours after administration, the moving distance (cm) and the moving speed (cm/s) for 5 minutes were compared using Noldus Video Traking system.
substance,measurement,setting,value
"1,2-diacyl-sn-glycero-3-phosphocholine [PPC]",formulation stability / property in words,[1],poor formulation stability
same,change of moving distance and moving speed,mouse paw,not changed or slightly increased; also recorded: wasn't changed or was slightly increased

# — US11298314B2, “Injectable composition for localized fat reduction without pain, edema, and side effects, and method for preparing same” (AMI PHARM CO., LTD., priority 2017, dated 2022)
